A value given as a limit tells only on which side of the number the result lay.

The target of the assay is hVR1 receptors (Homo sapiens, UniProt Q8NER1). Kind of assay: [3H] RTX binding assay, human VR1. Details: expressed in transfected cells; host or cells: HEK293 (membrane preparation). Particulars: inhibition of [3H] RTX binding, membranes of HEK293 cells transfected with human VR1. How it is done: Compounds of the present invention were tested for their ability to inhibit the binding of [^3H] RTX to hVR1 receptors in a [^3H] RTX binding assay as previously described (Zhang, Sui-Po. Improved ligand binding assays for vanilloid receptors. PCT Int. Appl. (2002), 29 pp. CODEN: PIXXD2 WO 0233411 A1 20020425 AN 2002:315209; Grant, Elfrida R.; Dubin, Adrienne E.; Zhang, Sui-Po; Zivin, Robert A.; Zhong, Zhong Simultaneous intracellular calcium and sodium flux imaging in human vanilloid receptor 1 (VR1)-transfected human embryonic kidney cells: a method to resolve ionic dependence of VR1-mediated cell death. Journal of Pharmacology and Experimental Therapeutics (2002), 300(1), 9-17.)
hVR1 receptors, sequence (Q8NER1 whole entry): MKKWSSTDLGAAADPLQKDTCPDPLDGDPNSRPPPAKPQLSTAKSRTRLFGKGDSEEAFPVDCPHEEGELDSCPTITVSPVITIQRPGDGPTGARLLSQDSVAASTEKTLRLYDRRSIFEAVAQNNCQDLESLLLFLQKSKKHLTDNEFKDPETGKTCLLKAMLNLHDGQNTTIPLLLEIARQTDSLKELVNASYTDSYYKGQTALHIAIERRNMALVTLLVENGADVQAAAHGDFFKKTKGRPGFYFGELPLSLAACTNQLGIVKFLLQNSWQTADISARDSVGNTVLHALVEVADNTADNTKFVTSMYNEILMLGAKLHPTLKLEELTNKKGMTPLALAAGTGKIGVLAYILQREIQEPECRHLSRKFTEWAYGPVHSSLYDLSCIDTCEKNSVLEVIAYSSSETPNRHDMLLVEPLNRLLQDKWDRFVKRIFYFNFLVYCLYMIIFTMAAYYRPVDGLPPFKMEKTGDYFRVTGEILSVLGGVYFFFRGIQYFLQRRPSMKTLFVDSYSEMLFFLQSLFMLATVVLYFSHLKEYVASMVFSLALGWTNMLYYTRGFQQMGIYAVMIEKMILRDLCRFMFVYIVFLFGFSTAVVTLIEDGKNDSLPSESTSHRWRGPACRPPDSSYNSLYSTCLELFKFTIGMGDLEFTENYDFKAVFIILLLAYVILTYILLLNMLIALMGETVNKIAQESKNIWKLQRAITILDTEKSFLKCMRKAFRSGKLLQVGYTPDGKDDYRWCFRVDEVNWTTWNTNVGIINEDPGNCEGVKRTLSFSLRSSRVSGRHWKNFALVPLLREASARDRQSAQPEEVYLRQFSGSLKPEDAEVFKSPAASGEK
HEK293 cells were transfected with human VR1 vanilloid receptors and washed with Hank's Balanced Salt Solution, dissociated with cell dissociation buffer (Sigma), and then centrifuged at 1000×g for 5 min. Cell pellets were homogenized in cold 20 mM HEPES buffer, pH 7.4, containing 5.8 mM NaCl, 320 mM sucrose, 2 mM MgCl2, 0.75 CaCl2 and 5 mM KCl and centrifuged at 1000×g for 15 min. The resultant supernate was then centrifuged at 40000×g for 15 min. The pelleted membranes were kept in an −80° C. freezer.
Approximately 120 μg protein/ml from membranes were incubated with indicated concentrations of [^3H] RTX in 0.5 ml of the HEPES buffer (pH 7.4) containing 0.25 mg/mL fatty acid-free bovine serum albumin at 37° C. for 60 min. The reaction mixture was then cooled to 4° C., 0.1 mg α1-acid glycoprotein added to each sample and incubated at 4° C. for 15 min. The samples were centrifuged at 18500×g for 15 min. The tip of the microcentrifuge tube containing the pellet was cut off. Bound radioactivity was quantified by scintillation counting. Non-specific binding was tested in the presence of 200 nM unlabeled RTX.
In general, Ki refers to the equilibrium dissociation constant of an inhibitor or competing ligand from its target. For the compound `O=C(Nc1cccc2cnccc12)N[C@H]1CCc2cc(Br)ccc2[C@H]1Cc1ccccc1` (relative stereo) [Compound 39], the Ki turned out to be 0.89 nM. As to `COc1ccc2c(c1)CC[C@@H](NC(=O)Nc1cccc3cnccc13)[C@H]2Cc1cccc(Cl)c1` (relative stereo) [Compound 44], the affinity corresponds to a Ki of 1.96 nM. This Ki is about 2.2-fold higher than that of the compound before. Then `COc1ccc2c(c1)CC[C@@H](NC(=O)Nc1cccc3cnccc13)[C@@H]2Cc1cccc(Cl)c1` (relative stereo) [Compound 46], with 8.81 nM; and `COc1ccc2c(c1)CC[C@@H](NC(=O)Nc1cccc3cnccc13)[C@H]2Cc1ccccc1Cl` (relative stereo) [Compound 49], with 2.66 nM. The result for `COc1ccc2c(c1)CC[C@@H](NC(=O)Nc1cccc3cnccc13)[C@@H]2Cc1ccccc1Cl` (relative stereo) [Compound 52] reads 12.3 nM. The result for `O=C(Nc1cccc2cncc(Cl)c12)N[C@H]1CCc2cc(F)ccc2[C@H]1Cc1ccccc1` (relative stereo) [Compound 98] reads 2730 nM; that for `Cc1cc2c(NC(=O)NC3CCc4cc(F)ccc4C3Cc3ccccc3)cccc2cn1` (single isomer, unassigned) [Compound 81a], 1.12 nM; that for `Cc1cc2c(NC(=O)NC3CCc4cc(F)ccc4C3Cc3ccccc3)cccc2cn1` (single isomer, unassigned) [Compound 81b], 5.25 nM. The compound `O=C(Nc1cccc2c[n+]([O-])ccc12)NC1CCc2cc(F)ccc2C1Cc1ccccc1` (single isomer, unassigned) [Compound 97] returned a Ki of 45.4 nM. The result for `O=C(Nc1cccc2c(Cl)nccc12)NC1CCc2cc(F)ccc2C1Cc1ccccc1` (single isomer, unassigned) [Compound 104] reads 32.3 nM; that for `COc1ccc2c(c1)CCC(NC(=S)NCc1ccc(O)c(OC)c1)C2Cc1ccccc1` (stereo not drawn) [Compound 3, 1-(1-Benzyl-6-methoxy-1,2,3,4-tetrahydro-naphthalen-2-yl)-3-(4-hydroxy-3-methoxy-benzyl)-thiourea], 98.9 nM. The result for `COc1ccc2c(c1)CCC(NC(=S)NCc1ccc(O)c(OC)c1)C2Cc1cccnc1` (stereo not drawn) [Compound 6] reads greater than 10000 nM; that for `COc1ccc2c(c1)CCC(NC(=S)NCc1ccc(O)c(OC)c1)C2Cc1c[nH]cn1` (stereo not drawn) [Compound 8], greater than 10000 nM.

Compound `COc1ccc2c(c1)CCC(NC(=O)NCc1ccc3c(c1)OCO3)C2Cc1ccccc1` (stereo not drawn) [Compound 9] registered a Ki greater than 10000 nM. `COc1ccc2c(c1)CCC(NC(=O)NCc1ccc(OC)c(OC)c1)C2Cc1ccccc1` (stereo not drawn) [Compound 10]: affinity was put at a Ki of 13000 nM. This lies in the double-digit micromolar range. Then `COc1ccc2c(c1)CCC(NC(=O)NCCc1ccc(OC)c(OC)c1)C2Cc1ccccc1` (stereo not drawn) [Compound 13], with 3600 nM; and `COc1ccc2c(c1)CCC(NC(=S)NCc1ccc3c(c1)OCO3)C2Cc1ccccc1` (stereo not drawn) [Compound 14], with greater than 10000 nM. In the case of `COc1ccc2c(c1)CCC(NC(=S)NCc1ccc(OC)c(OC)c1)C2Cc1ccccc1` (stereo not drawn) [Compound 15], the Ki worked out at 3110 nM. That is a single-digit micromolar value. Then `COc1ccc2c(c1)CCC(NC(=O)NCc1ccc(O)c(OC)c1)C2Cc1ccccc1` (stereo not drawn) [Compound 19], with 258 nM; and `COCOc1ccc(CNC(=S)NC2CCc3ccccc3C2Cc2ccccc2)cc1OC` (stereo not drawn) [Compound 21], with 520 nM; and `COc1cc(CNC(=S)NC2CCc3ccccc3C2Cc2ccccc2)ccc1O` (stereo not drawn) [Compound 23], with 98.2 nM. Then `COc1ccc2c(c1)CCC(NC(=O)NCc1ccc(N(C)C3CCCCC3)cc1)C2Cc1ccccc1` (stereo not drawn) [Compound 25], with 70900 nM; and `COc1ccc2c(c1)CCC(NC(=O)Nc1cccc3ccc(O)cc13)C2Cc1ccccc1` (stereo not drawn) [Compound 35], with 9.64 nM.

In turn, `O=C(Nc1cccc2cnccc12)NC1CCc2cc(F)ccc2C1` (stereo not drawn) [Compound 37] gave an inhibitory constant (Ki) of 24.9 nM. Compound `COc1cc2c(cc1OC)C(Cc1ccccc1)C(NC(=O)Nc1cccc3cnccc13)CC2` (stereo not drawn) [Compound 40] registered a Ki of 29.6 nM.

`O=C(Nc1cccc2cnccc12)NC1CCc2ccc(Cl)cc2C1Cc1ccccc1` (stereo not drawn) [Compound 41] came in with a Ki of 4.58 nM. For the compound `O=C(Nc1cccc2cnccc12)NC1CCc2ccccc2C1Cc1ccccc1` (stereo not drawn) [Compound 43], the Ki was determined as 3.66 nM. Consider `COc1ccc2c(c1)CCC(NC(=O)Nc1cccc3cnccc13)C2Cc1cccnc1` (stereo not drawn) [Compound 45], for which affinity was put at a Ki of 1540 nM. The result for `COc1ccc2c(c1)CCC(NC(=O)Nc1cccc3cnccc13)C2Cc1cccnc1` (stereo not drawn) [Compound 47] reads 1030 nM. With `COc1cc2c(cc1OC)C(Cc1ccccc1)C(NC(=O)Nc1cccc3cnccc13)CC2` (stereo not drawn) [Compound 48], the Ki amounted to 19.3 nM. Against the preceding compound, the Ki is about 53-fold lower. Then `COc1ccc2c(c1)CCC(NC(=O)Nc1cccc3cnccc13)C2Cc1ccc(Cl)cc1` (stereo not drawn) [Compound 50], with 1.8 nM; and `COc1ccc2c(c1)CCC(NC(=O)Nc1cccc3cnccc13)C2` (stereo not drawn) [Compound 51], with 24 nM.

Take `COc1ccc2c(c1)CCC(NC(=O)Nc1cccc3cnccc13)C2Cc1ccccc1C(F)(F)F` (stereo not drawn) [Compound 53]: affinity was put at a Ki of 0.48 nM. Then `COc1ccc2c(c1)CCC(NC(=O)Nc1cccc3cnccc13)C2Cc1cccc(C(F)(F)F)c1` (stereo not drawn) [Compound 54], with 2.04 nM. The result for `COc1ccc2c(c1)CCC(NC(=O)Nc1cccc3cnccc13)C2Cc1ccc(C(F)(F)F)cc1` (stereo not drawn) [Compound 55] reads 1.55 nM; that for `O=C(Nc1cccc2cnccc12)NC1CCc2cc(O)ccc2C1Cc1ccccc1` (stereo not drawn) [Compound 56], 277 nM; that for `O=C(Nc1cccc2cnccc12)NC1CCc2cc(Br)ccc2C1` (stereo not drawn) [Compound 58], 2.62 nM.

`O=C(Nc1cccc2cnccc12)NC1CCc2cc(Cl)ccc2C1` (stereo not drawn) [Compound 59] displayed a Ki of 2.6 nM. Then `O=C(NCc1cccc2cnccc12)NC1CCc2cc(F)ccc2C1Cc1ccccc1` (stereo not drawn) [Compound 60, 1-(1-Benzyl-6-fluoro-1,2,3,4-tetrahydronaphthalene-2-yl)-3-isoquinolin-5-ylmethyl-urea], with 4.99 nM; and `O=C(Nc1cccc2cnccc12)NC1CCc2ccc(Cl)cc2C1` (stereo not drawn) [Compound 61], with 3.42 nM. The result for `O=C(Nc1cccc2cnccc12)NC1CCc2cccc(Cl)c2C1Cc1ccccc1` (stereo not drawn) [Compound 62] reads 7.59 nM; that for `COc1ccc2c(c1)CCC(NC(=O)Nc1cccc3cnccc13)C2Cc1ccc(C#N)cc1` (stereo not drawn) [Compound 63], 16.5 nM; that for `COc1ccc2c(c1)CCC(NC(=O)Nc1cccc3cnccc13)C2Cc1ccc(Br)cc1` (stereo not drawn) [Compound 64], 1.28 nM. `O=C(Nc1cccc2cnccc12)NC1CCc2cc(F)c(F)cc2C1Cc1ccccc1` (stereo not drawn) [Compound 66] gave a Ki of 1.82 nM. Then `O=C(Nc1cccc2ccc(O)cc12)NC1CCc2cc(F)ccc2C1Cc1ccccc1` (stereo not drawn) [Compound 67, 1-(1-Benzyl-6-fluoro-1,2,3,4-tetrahydronaphthalene-2-yl)-3-(7-hydroxy-naphthalen-1-yl)-urea], with 1.44 nM. The result for `C=CCC1c2ccc(F)cc2CCC1NC(=O)Nc1cccc2cnccc12` (stereo not drawn) [Compound 69] reads 2.19 nM.

On to `COc1ccc(CC2c3ccc(OC)cc3CCC2NC(=O)Nc2cccc3cnccc23)cc1` (stereo not drawn) [Compound 70], for which the Ki was 5.55 nM.

In the case of `O=C(Nc1cccc2cnccc12)NC1CCc2cc(F)ccc2C1CC1CC1` (stereo not drawn) [Compound 71, 1-(1-cyclopropylmethyl-6-fluoro-1,2,3,4-tetrahydronaphthalene-2-yl)-3-isoquinolin-5-yl-urea], the affinity corresponds to a Ki of 0.84 nM.

The values are drawn from patent US7678812B2, “Aminotetralin-derived urea modulators of vanilloid VR1 receptor” (Janssen Pharmaceutica NV, priority 2002, dated 2010).
